Molecular target: AMPK
Test: AMPK activation, enzyme-linked immunosorbent assay
Format: biochemical
Conditions: Table 5, ELISA

**Q.** `N#Cc1ccc(CN2CCC(NC(=O)c3cnc4ccc(OC5CCN(c6ccc(C(F)(F)F)cc6)CC5)cc4c3)CC2)cc1` [Compound 69, N-(1-(4-cyanobenzyl)piperidin-4-yl)-6-(1-(4-(trifluoromethyl)phenyl)piperidin-4-yloxy) quinoline-3-carboxamide] was tested. Which EC50 did it give?
**A.** The EC50 was < 0.1 µM.

**Q.** Which EC50 does the source give for `O=C(NC1CCN(Cc2ccc(C(F)(F)F)cc2)CC1)c1cnc2ccc(OC3CCN(c4ccc(C(F)(F)F)cc4)CC3)cc2c1` [Compound 70, N-(1-(4-(trifluoromethyl)benzyl)piperidin-4-yl)-6-(1-(4-(trifluoromethyl)phenyl)piperidin-4-yloxy) quinoline-3-carboxamide] here?
**A.** The EC50 was < 0.1 µM.
